In US5464829A, “Cephalosporin derivatives” (Meiji Seika Kaisha Ltd., priority 1992, dated 1995):
Converted amounts (≈) assume the structure as drawn.

Key:
Assay in all cases: Minimum inhibitory concentration (MIC), serial dilution technique
Assay type in all cases: cell-based
C. freundii GN346/16 = details: Citrobacter freundii, 10^6 CFU/ml, 35° C., 18 to 20 hours
Procedure: (§1) Antibacterial activities of the following typical compounds A through E of the present invention represented by formula (I) upon various bacteria were determined by measuring the minimum inhibitory concentrations (MIC) in accordance with the known serial dilution technique. MIC was measured by inoculating 10^6 CFU/ml of each test strain on a Sensitivity Plate Medium N (Nissui Pharmaceutical Co., Ltd.), incubating the plates at 35° C. for 18 to 20 hours and then evaluating the results.

E. cloacae G-0008 = details: Enterobacter cloacae, G0008, 10^6 CFU/ml, 35° C., 18 to 20 hours
Procedure: as §1

E. coli NIHJ JC-2 = details: Escherichia coli, NIHJJC2, 10^6 CFU/ml, 35° C., 18 to 20 hours
Procedure: as §1

E. hirae ATCC8043 = details: Enterococcus hirae, 10^6 CFU/ml, 35° C., 18 to 20 hours
Procedure: as §1

K. pneumoniae PCI602 = details: Klebsiella pneumoniae, 10^6 CFU/ml, 35° C., 18 to 20 hours
Procedure: as §1

M. morganii 1510/S-1 = details: Morganella morganii, 1510/S1, 10^6 CFU/ml, 35° C., 18 to 20 hours
Procedure: as §1

P. aeruginosa E-2 = details: Pseudomonas aeruginosa, E2, 10^6 CFU/ml, 35° C., 18 to 20 hours
Procedure: as §1

P. vulgaris GN76 = details: Proteus vulgaris, 10^6 CFU/ml, 35° C., 18 to 20 hours
Procedure: as §1

S. aureus 209P JC-1 = details: Staphylococcus aureus, 10^6 CFU/ml, 35° C., 18 to 20 hours
Procedure: as §1

S. epidermidis ATCC14990 = details: Staphylococcus epidermidis, 10^6 CFU/ml, 35° C., 18 to 20 hours
Procedure: as §1

S. marcescens No. 1 = details: Serratia marcescens, 10^6 CFU/ml, 35° C., 18 to 20 hours
Procedure: as §1

Compound | MIC (C. freundii GN346/16) | MIC (E. cloacae G-0008) | MIC (E. coli NIHJ JC-2) | MIC (E. hirae ATCC8043) | MIC (K. pneumoniae PCI602) | MIC (M. morganii 1510/S-1) | MIC (P. aeruginosa E-2) | MIC (P. vulgaris GN76) | MIC (S. aureus 209P JC-1) | MIC (S. epidermidis ATCC14990) | MIC (S. marcescens No. 1)
C[n+]1ccc2sc(SCC3=C(C(=O)[O-])N4C(=O)C(NC(=O)/C(=N\OC(C)(C)C(=O)O)c5csc(N)n5)C4SC3)nc2c1 (stereo not shown) [D, 7-{(Z)-2-(2-aminothiazol-4-yl)-2-(1-carboxy-1-methylethoxyimino)acetamido}-3-(5-methylthiazolo[4,5-c]pyridinium-2-yl)thiomethyl-3-cephem-4-carboxylate] | 0.39 µg/mL (≈ 0.6 µM) | 0.2 µg/mL (≈ 0.308 µM) | 0.2 µg/mL (≈ 0.308 µM) | > 100 µg/mL | 0.2 µg/mL (≈ 0.308 µM) | 0.05 µg/mL (≈ 0.077 µM) | 3.13 µg/mL (≈ 4.82 µM) | 0.1 µg/mL (≈ 0.154 µM) | 3.13 µg/mL (≈ 4.82 µM) | 3.13 µg/mL (≈ 4.82 µM) | 0.05 µg/mL (≈ 0.077 µM)
C[C@H](O/N=C(\C(=O)NC1C(=O)N2C(C(=O)[O-])=C(CSc3nc4c[n+](C)ccc4s3)CSC12)c1csc(N)n1)C(=O)O (stereo partly drawn) [E, 7-[(Z)-2-(2-aminothiazol-4-yl)-2-{(S)-1-carboxyethoxyimino}acetamido]-3-(5-methylthiazolo[4,5-c]pyridinium-2-yl)thiomethyl-3-cephem-4-carboxylate] | 0.39 µg/mL (≈ 0.613 µM) | 0.2 µg/mL (≈ 0.315 µM) | 0.2 µg/mL (≈ 0.315 µM) | > 100 µg/mL | 0.05 µg/mL (≈ 0.0786 µM) | 0.05 µg/mL (≈ 0.0786 µM) | 1.56 µg/mL (≈ 2.45 µM) | < 0.025 µg/mL | 1.56 µg/mL (≈ 2.45 µM) | 1.56 µg/mL (≈ 2.45 µM) | 0.05 µg/mL (≈ 0.0786 µM)
C[n+]1ccc2sc(SCC3=C(C(=O)[O-])N4C(=O)C(NC(=O)/C(=N\OCC(=O)O)c5csc(N)n5)C4SC3)nc2c1 (stereo not shown) [C, 7-{(Z)-2-(2-aminothiazol-4-yl)-2-carboxymethoxyiminoacetamido}-3-(5-methylthiazolo[4,5-c]pyridinium-2-yl)thiomethyl-3-cephem-4-carboxylate] | 0.2 µg/mL (≈ 0.322 µM) | 0.05 µg/mL (≈ 0.0804 µM) | 0.05 µg/mL (≈ 0.0804 µM) | 100 µg/mL (≈ 161 µM) | < 0.025 µg/mL | < 0.025 µg/mL | 12.5 µg/mL (≈ 20.1 µM) | < 0.025 µg/mL | 3.13 µg/mL (≈ 5.03 µM) | 3.13 µg/mL (≈ 5.03 µM) | < 0.025 µg/mL

Stronger by MIC (C. freundii GN346/16), values ahead:

MIC (C. freundii GN346/16) | MIC (E. cloacae G-0008) | MIC (E. coli NIHJ JC-2) | MIC (E. hirae ATCC8043) | MIC (K. pneumoniae PCI602) | MIC (M. morganii 1510/S-1) | MIC (P. aeruginosa E-2) | MIC (P. vulgaris GN76) | MIC (S. aureus 209P JC-1) | MIC (S. epidermidis ATCC14990) | MIC (S. marcescens No. 1) | Compound
0.1 µg/mL (≈ 0.173 µM) | 0.05 µg/mL (≈ 0.0866 µM) | 0.05 µg/mL (≈ 0.0866 µM) | 1.56 µg/mL (≈ 2.7 µM) | 0.05 µg/mL (≈ 0.0866 µM) | < 0.025 µg/mL | 50 µg/mL (≈ 86.6 µM) | 0.39 µg/mL (≈ 0.675 µM) | 0.2 µg/mL (≈ 0.346 µM) | 0.2 µg/mL (≈ 0.346 µM) | 0.05 µg/mL (≈ 0.0866 µM) | CO/N=C(\C(=O)NC1C(=O)N2C(C(=O)[O-])=C(CSc3nc4c[n+](C)ccc4s3)CSC12)c1csc(N)n1 (stereo not shown) [A, 7-{(Z)-2-(2-aminothiazol-4-yl)-2-methoxyiminoacetamido}-3-(5-methylthiazolo[4,5-c]pyridinium-2-yl)thiomethyl-3-cephem-4-carboxylate]
0.1 µg/mL (≈ 0.173 µM) | 0.2 µg/mL (≈ 0.346 µM) | 0.1 µg/mL (≈ 0.173 µM) | 50 µg/mL (≈ 86.6 µM) | 0.05 µg/mL (≈ 0.0866 µM) | 0.1 µg/mL (≈ 0.173 µM) | 25 µg/mL (≈ 43.3 µM) | 0.2 µg/mL (≈ 0.346 µM) | 0.2 µg/mL (≈ 0.346 µM) | 0.2 µg/mL (≈ 0.346 µM) | 0.2 µg/mL (≈ 0.346 µM) | CO/N=C(\C(=O)NC1C(=O)N2C(C(=O)[O-])=C(CSc3nc4c(ccc[n+]4C)s3)CSC12)c1csc(N)n1 (stereo not shown) [B, 7-{(Z)-2-(2-aminothiazol-4-yl)-2-methoxyiminoacetamido}-3-(4-methylthiazolo[4,5-b]pyridinium-2-yl)thiomethyl-3-cephem-4-carboxylate]
